We go through twelve molecules from US20210284639A1, “TYROSINE AMIDE DERIVATIVES AS RHO- KINASE INHIBITORS” (CHIESI FARMACEUTICI S.p.A., priority 2018, published 2021).

Structures are written as SMILES.

One test deals with ROCK 1 (Rho kinase 1) (Homo sapiens, UniProt Q13464). The test can be described thus: In vitro inhibitory activity assay (ADP-Glo), Rho kinase 1. Format: biochemical. To be noted: Ki by Cheng-Prusoff from IC50; 10 μM ATP, 25° C. As to the method: (§1) In Vitro Inhibitory Activity Assay Description
Chain of ROCK 1 (Rho kinase 1) (Q13464 whole entry): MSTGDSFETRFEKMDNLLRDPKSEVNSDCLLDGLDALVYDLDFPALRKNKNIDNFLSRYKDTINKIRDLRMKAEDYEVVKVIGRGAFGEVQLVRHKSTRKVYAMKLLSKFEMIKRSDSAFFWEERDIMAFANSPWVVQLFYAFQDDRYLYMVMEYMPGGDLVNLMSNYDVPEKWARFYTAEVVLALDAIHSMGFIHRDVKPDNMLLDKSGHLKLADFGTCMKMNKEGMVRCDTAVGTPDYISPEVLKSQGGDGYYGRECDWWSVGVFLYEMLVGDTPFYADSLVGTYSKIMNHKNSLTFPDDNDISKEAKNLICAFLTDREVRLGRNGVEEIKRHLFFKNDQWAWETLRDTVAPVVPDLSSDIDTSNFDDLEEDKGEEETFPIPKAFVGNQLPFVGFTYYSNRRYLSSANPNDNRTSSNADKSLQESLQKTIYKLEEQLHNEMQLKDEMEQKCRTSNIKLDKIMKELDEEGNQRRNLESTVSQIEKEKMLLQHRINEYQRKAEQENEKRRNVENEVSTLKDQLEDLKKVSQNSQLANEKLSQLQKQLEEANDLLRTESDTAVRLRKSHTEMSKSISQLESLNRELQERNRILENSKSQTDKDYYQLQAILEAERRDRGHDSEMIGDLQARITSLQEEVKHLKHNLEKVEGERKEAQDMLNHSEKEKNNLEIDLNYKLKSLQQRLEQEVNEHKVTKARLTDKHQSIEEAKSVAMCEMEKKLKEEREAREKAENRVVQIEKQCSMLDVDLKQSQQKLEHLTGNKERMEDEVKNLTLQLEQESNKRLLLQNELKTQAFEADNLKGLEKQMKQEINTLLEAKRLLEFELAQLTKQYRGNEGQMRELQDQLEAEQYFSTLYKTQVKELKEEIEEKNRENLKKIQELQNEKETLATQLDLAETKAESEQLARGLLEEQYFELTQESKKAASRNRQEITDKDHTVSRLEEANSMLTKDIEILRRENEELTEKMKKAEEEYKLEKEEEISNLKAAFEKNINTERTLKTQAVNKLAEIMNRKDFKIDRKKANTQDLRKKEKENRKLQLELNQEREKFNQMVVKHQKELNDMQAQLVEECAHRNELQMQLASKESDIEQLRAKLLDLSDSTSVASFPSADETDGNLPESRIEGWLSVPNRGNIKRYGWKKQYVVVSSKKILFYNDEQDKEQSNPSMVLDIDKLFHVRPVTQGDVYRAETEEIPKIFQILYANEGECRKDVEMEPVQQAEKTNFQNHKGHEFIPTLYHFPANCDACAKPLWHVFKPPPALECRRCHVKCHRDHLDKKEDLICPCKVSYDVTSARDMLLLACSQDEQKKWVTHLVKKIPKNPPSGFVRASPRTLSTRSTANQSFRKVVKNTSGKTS
(§2) The effectiveness of compounds of the present invention to inhibit Rho kinase activity can be determined in a 10 μl assay containing 40 mM Tris pH7.5, 20 mM MgCl2 0.1 mg/ml BSA, 50 μM DTT and 2.5 μM peptide substrate (Myelin Basic Protein) using an ADP-Glo kit (Promega). Compounds were dissolved in DMSO such that the final concentration of DMSO was 1% in the assay. All reactions/incubations are performed at 25° C. Compound (2 μl) and either Rho kinase 1 or 2 (4 μl) were mixed and incubated for 30 mins. Reactions were initiated by addition of ATP (4 μl) such that the final concentration of ATP in the assay was 10 μM. After a 1 hour incubation 10 μl of ADP-Glo Reagent was added and after a further 45 minute incubation 20 μl of Kinase Detection Buffer was added and the mixture incubated for a further 30 minutes. The luminescent signal was measured on a luminometer. […] Compounds were tested in dose-response format and the inhibition of kinase activity was calculated at each concentration of compound. To determine the IC50 (concentration of compound required to inhibit 50% of the enzyme activity) data were fit to a plot of % inhibition vs Log10 compound concentration using a sigmoidal fit with a variable slope and fixing the maximum to 100% and the minimum to 0%. To determine the Ki values the Cheng-Prusoff equation was utilized (Ki=IC50/(1+[S]/Km).
In general terms: In ADP-Glo the light output rises with the ADP produced.

The target of the next test is ROCK 2 (Rho kinase 2) (Homo sapiens, UniProt O75116). The test can be described thus: In vitro inhibitory activity assay (ADP-Glo), Rho kinase 2. Format: biochemical. To be noted: Ki by Cheng-Prusoff from IC50; 10 μM ATP, 25° C. As to the method:
as §1, §2

A word on the Ki: it is the equilibrium dissociation constant of an inhibitor or competing ligand from its target. High values mean weaker binding, low ones tighter binding.

Chain of ROCK 2 (Rho kinase 2) (O75116 whole entry): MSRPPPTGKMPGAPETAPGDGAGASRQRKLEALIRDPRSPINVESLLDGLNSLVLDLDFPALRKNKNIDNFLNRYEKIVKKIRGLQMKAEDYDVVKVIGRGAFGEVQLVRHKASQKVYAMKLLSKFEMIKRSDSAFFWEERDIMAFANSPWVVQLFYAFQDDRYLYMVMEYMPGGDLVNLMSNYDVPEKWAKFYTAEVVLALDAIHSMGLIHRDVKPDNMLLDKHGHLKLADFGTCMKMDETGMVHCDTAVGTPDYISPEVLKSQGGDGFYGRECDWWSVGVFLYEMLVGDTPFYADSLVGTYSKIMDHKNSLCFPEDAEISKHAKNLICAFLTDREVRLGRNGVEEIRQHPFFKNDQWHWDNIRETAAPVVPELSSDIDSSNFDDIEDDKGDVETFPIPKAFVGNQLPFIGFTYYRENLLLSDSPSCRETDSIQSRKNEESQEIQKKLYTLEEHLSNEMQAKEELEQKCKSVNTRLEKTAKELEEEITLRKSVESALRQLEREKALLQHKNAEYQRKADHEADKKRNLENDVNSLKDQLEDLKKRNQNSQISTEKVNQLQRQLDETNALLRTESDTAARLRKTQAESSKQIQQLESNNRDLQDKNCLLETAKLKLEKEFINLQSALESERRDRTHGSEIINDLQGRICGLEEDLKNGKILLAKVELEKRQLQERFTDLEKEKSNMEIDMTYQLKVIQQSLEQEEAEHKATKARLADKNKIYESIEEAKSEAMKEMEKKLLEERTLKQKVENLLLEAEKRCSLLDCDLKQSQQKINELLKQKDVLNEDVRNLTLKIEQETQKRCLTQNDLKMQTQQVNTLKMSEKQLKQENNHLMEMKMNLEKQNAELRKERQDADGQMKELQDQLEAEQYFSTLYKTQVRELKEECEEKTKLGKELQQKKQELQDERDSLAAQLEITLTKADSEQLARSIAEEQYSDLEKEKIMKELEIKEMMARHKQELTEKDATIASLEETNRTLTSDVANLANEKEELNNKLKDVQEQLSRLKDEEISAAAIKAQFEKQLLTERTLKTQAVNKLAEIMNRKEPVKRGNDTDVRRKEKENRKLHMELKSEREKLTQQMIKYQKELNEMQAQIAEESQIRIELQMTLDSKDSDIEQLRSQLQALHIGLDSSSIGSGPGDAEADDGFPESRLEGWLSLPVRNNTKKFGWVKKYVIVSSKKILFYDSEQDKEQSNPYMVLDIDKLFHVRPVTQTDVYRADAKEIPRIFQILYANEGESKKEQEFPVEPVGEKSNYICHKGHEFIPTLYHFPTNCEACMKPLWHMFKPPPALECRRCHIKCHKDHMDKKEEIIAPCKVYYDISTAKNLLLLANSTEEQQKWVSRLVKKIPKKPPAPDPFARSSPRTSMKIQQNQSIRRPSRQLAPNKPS

Regarding `Cc1c[nH]c2ncnc(Oc3ccc(C[C@H](N)C(=O)NC4(CCO)CCCCC4)cc3F)c12` [Example 34, (S)-2-amino-3-(3-fluoro-4-((5-methyl-7H-pyrrolo[2,3-d]pyrimidin-4-yl)oxy)phenyl)-N-(1-(2-hydroxyethyl)cyclohexyl)propanamide], the inhibition constant (Ki) on ROCK 1 (Rho kinase 1) and on ROCK 2 (Rho kinase 2) was below 3 nM in each case.
Take `Cc1c[nH]c2nccc(Oc3ccc(C[C@H](N)C(=O)N4C[C@@H]5CN(C6CC6)C[C@@H]5C4)cc3F)c12` [Example 12, (S)-2-Amino-1-((3aR,6aS)-5-cyclopropylhexahydropyrrolo[3,4-c]pyrrol-2(1H)-yl)-3-(3-fluoro-4-((3-methyl-1H-pyrrolo[2,3-b]pyridin-4-yl)oxy)phenyl)propan-1-one]: the inhibition constant (Ki) at ROCK 1 (Rho kinase 1) and on ROCK 2 (Rho kinase 2) was below 3 nM throughout.
In the case of `CNC(=O)C1(NC(=O)[C@@H](N)Cc2ccc(Oc3ccnc4[nH]cc(C)c34)c(F)c2)CCCCC1` [Example 29, (S)-1-(2-amino-3-(3-fluoro-4-((3-methyl-1H-pyrrolo[2,3-b]pyridin-4-yl)oxy)phenyl)propanamido)-N-methylcyclohexane-1-carboxamide], the Ki on ROCK 1 (Rho kinase 1) and at ROCK 2 (Rho kinase 2) was below 3 nM in each case.
As to `Cc1c[nH]c2nccc(Oc3ccc(C[C@H](N)C(=O)NC4CCCN(C)C4)cc3F)c12` (single isomer, unassigned) [Example 17], the Ki on ROCK 1 (Rho kinase 1) and on ROCK 2 (Rho kinase 2) was 3 to 30 nM throughout.
As to `Cc1c[nH]c2nccc(Oc3ccc(C[C@H](N)C(=O)NC4CCN(CC5CC5)CC4)cc3F)c12` [Example 16, (S)-2-Amino-N-(1-(cyclopropylmethyl)piperidin-4-yl)-3-(3-fluoro-4-((3-methyl-1H-pyrrolo[2,3-b]pyridin-4-yl)oxy)phenyl)propanamide], the Ki on ROCK 1 (Rho kinase 1) and at ROCK 2 (Rho kinase 2) was below 3 nM in each case.
For the molecule `COCCNC(=O)C1(NC(=O)[C@@H](N)Cc2ccc(Oc3ccnc4[nH]cc(C)c34)c(F)c2)CCCCC1` [Example 43, (S)-1-(2-amino-3-(3-fluoro-4-((3-methyl-1H-pyrrolo[2,3-b]pyridin-4-yl)oxy)phenyl)propanamido)-N-(2-methoxyethyl)cyclohexanecarboxamide], the Ki at ROCK 1 (Rho kinase 1) and on ROCK 2 (Rho kinase 2) was below 3 nM in each case.
Consider `Cc1c[nH]c2ncnc(Oc3ccc(C[C@H](N)C(=O)N4CCC(S(=O)(=O)c5ccc(F)cc5)CC4)cc3F)c12` [Example 37, (S)-2-Amino-3-(3-fluoro-4-((5-methyl-7H-pyrrolo[2,3-d]pyrimidin-4-yl)oxy)phenyl)-1-(4-((4-fluorophenyl)sulfonyl)piperidin-1-yl)propan-1-one], for which the Ki on ROCK 1 (Rho kinase 1) and at ROCK 2 (Rho kinase 2) was below 3 nM throughout.
As to `Cc1c[nH]c2nccc(Oc3ccc(C[C@H](N)C(=O)NC4(CO)CCN(C5CC5)CC4)cc3F)c12` [Example 20, (S)-2-Amino-N-(1-cyclopropyl-4-(hydroxymethyl)piperidin-4-yl)-3-(3-fluoro-4-((3-methyl-1H-pyrrolo[2,3-b]pyridin-4-yl)oxy)phenyl)propanamide], the Ki on ROCK 1 (Rho kinase 1) and at ROCK 2 (Rho kinase 2) was below 3 nM throughout.
Take `Cc1c[nH]c2nccc(Oc3ccc(C[C@H](N)C(=O)N4CCC(O)(CO)CC4)cc3F)c12` [Example 9, (S)-2-Amino-3-(3-fluoro-4-((3-methyl-1H-pyrrolo[2,3-b]pyridin-4-yl)oxy)phenyl)-1-(4-hydroxy-4-(hydroxymethyl)piperidin-1-yl)propan-1-one]: the inhibition constant (Ki) on ROCK 1 (Rho kinase 1) and on ROCK 2 (Rho kinase 2) was below 3 nM each time.
With `Cc1c[nH]c2ncnc(Oc3ccc(C[C@H](N)C(=O)NC4(CO)CCOCC4)cc3F)c12` [Example 36, (S)-2-Amino-3-(3-fluoro-4-((5-methyl-7H-pyrrolo[2,3-d]pyrimidin-4-yl)oxy)phenyl)-N-(4-(hydroxymethyl)tetrahydro-2H-pyran-4-yl)propanamide], the inhibition constant (Ki) was 3 to 30 nM at ROCK 1 (Rho kinase 1) and below 3 nM at ROCK 2 (Rho kinase 2).
`Cc1c[nH]c2nccc(Oc3ccc(C[C@H](N)C(=O)NC4CCN(CC(C)C)CC4)cc3F)c12` [Example 6, (S)-2-Amino-3-(3-fluoro-4-((3-methyl-1H-pyrrolo[2,3-b]pyridin-4-yl)oxy)phenyl)-N-(1-isobutylpiperidin-4-yl)propanamide]: the Ki at ROCK 1 (Rho kinase 1) and at ROCK 2 (Rho kinase 2) was below 3 nM each time.
Turning to `Cc1c[nH]c2nccc(Oc3ccc(C[C@H](N)C(=O)NC4CCCN(C)C4)cc3F)c12` (single isomer, unassigned) [Example 18], the Ki at ROCK 1 (Rho kinase 1) and at ROCK 2 (Rho kinase 2) was 3 to 30 nM throughout.
